This note sets out measurements from patent US20200147069A1, “Compounds for The Reduction of The Deleterious Activity of Extended Nucleotide Repeat Containing Genes” (The Board of Trustees of the Leland Stanford Junior …, priority 2017, published 2020).

Series [1] addresses T1, interaction between Supt4h and NGN (Homo sapiens, UniProt O00267+P63272).
T1 construct: expressed in transfected cells
Description: Split Gaussia luciferase complementation assay (M2-8 cells). It counts as cell-based. Conditions: for IC50: M2-8 cells, 24 hr, concentration at which signal was reduced to 50% of untreated. The method, then: i: pNBR-X1-Supt4-Gluc1 and pNEBR-X1-NGN-Gluc2 The HA-Supt4h and Flag-NGN fragments are amplified by PCR using the plasmid pHA-Supt4h-YC and pFlag-NGN-YN and sub-cloned individually into pcDNA3.1-Gluc1 and pcDNA3.1-Gluc2 (described in “A highly sensitive protein-protein interaction assay based on Gausssia luciferase” published at Nat Methods. 2006 December; 3(12):977-9. Epub 2006 Nov. 12). Then HA-Supt4h-Gluc1 and Flag-NGN-Gluc2 are amplified by PCR and inserted to pNEBR-X1-Hygro (New England BioLabs), which contain RheoSwitch responsive element under the control of RheoSwitch ligand.
PCR products containing the sequence from 5XRE to polyA in pNEBR-X1-NGN-G2 are inserted to pNEBR-X1-Supt4h-G1 at PciI site to generate Supt4h-G1 and NGN-G2 bidirectional under their own RheoSwitch responsive element and polyA in the same plasmid.
i: 293-R^1 is a cloned cell which is engineered to constitutively express RSL1 receptor/activator by transfecting HEK 293 cells with pNEBR-R^1 plasmid (New England BioLabs) and selected with Blasticidin.
ii: M2-8 is a cloned 293-R^1 cell which can inducibly express pNEBR-X1-Supt4h-G1-NGN-G2 by addition of RSL1. Two point mutations (M431 and M1101) are introduced to the GL1 and GL2 for better stability according to “A high-throughput cell-based Gaussia luciferase reporter assay for identifying modulators of fibulin-3 secretion” published on J Biomol Screen. 2013 July; 18(6):647-58. The cell line is selected by Hygromycin.
All the HEK-293 cells and derivative cell clones are maintained in DMEM containing 10% FBS plus corresponding antibiotics (250 μg/ml hygromycin B, 10 μg/ml blasticidin or both) at 37° C., 5% CO2. All the transfections are done by using lifpofectamine 2000 (Invitrogen) according to the manufacture's direction.
Plasmids harboring the Gluc1 and Gluc2 are co-transfected in a 1:1 ratio into 293-R^1 cells plated on tissue culture treated 24-well plates using Lipofectamine 2000 according to the manufacturer's instruction. For stable cell M2-8, the cells are plated into 96 well or 384 well white plate directly. 24 hours later, RheoSwitch ligand together with/without test compound is added to the cells for induction/drug treatment. After 24 hr, the cells are washed with PBS and the plate was put in −20° C. freezer for overnight. After taking out the plate from freezer, lysis buffer (30 mM Tris-HCl, pH 8.0, 5 mM NaCl, 0.1% Triton X-100) with 10 μg/ml native coelenterazine (Nanolight Technology) is immediately added to the cells. The cells are lysed at room temperature for one hour in dark. After shaking for about 1 min, 40 μl of cell lysate are transferred to a white 96 well plate. For M2-8 in white micro plate, no transfer is needed. Signal intensities (integrated 100 ms) were read on Tecan Infinite M200 or M1000.
The bioluminescence signal of Gaussia Luciferase from untreated M2-8 cells was set as 100% and the IC50 of the compound was defined as the compound concentration at which the signal intensity was reduced to 50%.
The split Gaussia luciferase complementation assay measures the interaction between Sup4h and NGN. NGN is the subunit of Supt5h that binds to Supt4h. […] Therefore, administration of Compound 1 results in decreased production of mutant proteins encoded by genes that include mutant nucleotide repeats.

For series [2], the system named is mutant HTT protein. Description: Mutant HTT activity assay in induced pluripotent stem cells (iPSC). As to conditions: iPSCs derived from a Huntington's disease patient, 24 hr, Western blot normalized by tubulin. It counts as cell-based, human. The protocol:
FIG. 1A-1B. iPSCs were treated with Compound 1 at different doses for 24 hr. The cells were collected and lysed for protein quantification. Equal amounts of protein were applied on SDS-PAGE gel for Western Blotting. Mutant HTT protein was recognized by polyQ antibody (MAB1574 from Millipore) while wild type HTT protein was blotted by anti-Huntingtin antibody (MAB2166 from Millipore) (FIG. 1A). Both proteins were scanned and quantified by Li-Cor Odyssey and normalized by tubulin (FIG. 1B).
Huntington disease patient iPSCs (ND36999 from Coriell Institute) were detached into single cells by Accutase (AT104 from Accutase) and plated on a 24-well plate coated with Matrigel (354277 from Corning). […] The protein concentrations were determined by BCA assay (Pierce, ThermoFisher). […] The protein level of mutant HTT, total HTT and tubulin were determined by immunoblotting with anti-poly Glutamine (MAB1574 from Millipore), anti-Huntingtin protein (MAB2166 from Millipore) and anti-alpha tubulin (AJ1034a from ABGENT). […] The band intensities were determined by Li-Cor Odyssey software.
Using the protocol reported above, iPSCs were treated with Compound 1 at various doses for 24 hr. The cells were collected and lysed for protein quantification. […] Both proteins were scanned and quantified by Li-Cor Odyssey and normalized by tubulin.
A general note: A western blot detects proteins with antibodies after separation by electrophoresis.

Series [3] concerns Gmr-Htt97Q/+ HD flies. Description: Eye morphology (rough eye) analysis in Drosophila HD model. As to conditions: 100 μM in media. The format is in vivo, Drosophila melanogaster. The protocol: FIG. 2A. The morphology of compound eye was analyzed in fruit flies treated with or without Compound 1. […] To quantify the appearance of “rough eye” in Gmr-Htt97Q/+ treated with 10 and 100 μM of Compound 1, ten flies were randomly picked from each group and the number of flies with “rough eye” phenotype were determined under microscope. Compared to untreated group, the relative percentage of HD flies with “rough eye” phenotype in treated groups is shown (right panel). Data are presented as mean±SD (N=3; **, p<0.01 by student's t test).
The Drosophila melanogaster (fruit fly) HD models used in this set of experiments carry the coding sequence of human Htt exon1 with 97 CAG repeats to mimic mutant Httof Huntington's disease (HD). The Gmr::Htt97Q fly, expressing mutant Htt primarily in the neurons of Drosophila compound eyes, has a severe degeneration of photoreceptor neurons and the phenotypic trait ‘rough eye’. The elav::Htt97Q fly expresses the mutant protein specifically in neuroblasts and glial cells in the Drosophila embryonic CNS, resulting in a substantially negative impact on eclosion. All of the fly stocks and genetics crosses were maintained at 25° C. on standard cornmeal yeast agar media. […]

Series [4] deals with elav::Htt97Q HD flies. Description: Eclosion rate analysis in Drosophila HD model. It counts as in vivo, Drosophila melanogaster. The protocol:
FIG. 2B. HD fly (elav::Htt97Q) eclosion rate was measured in the presence or absence of Compound 1 treatment. 100 newly hatched flies, generated from crossing of male (elav-gal4/cyo) and female (UAS-Htt97Q/UAS-Htt97Q) flies, were collected at […]. The eclosion rate was determined by the number of HD-flies (elav::Htt97Q) vs. the number of non HD-flies (cyo::Htt97Q) (N=3; *, p<0.05 by student's t test).
The Drosophila melanogaster (fruit fly) HD models used in this set of experiments carry the coding sequence of human Htt exon1 with 97 CAG repeats to mimic mutant Httof Huntington's disease (HD). The Gmr::Htt97Q fly, expressing mutant Htt primarily in the neurons of Drosophila compound eyes, has a severe degeneration of photoreceptor neurons and the phenotypic trait ‘rough eye’. The elav::Htt97Q fly expresses the mutant protein specifically in neuroblasts and glial cells in the Drosophila embryonic CNS, resulting in a substantially negative impact on eclosion. […]
A group of 15 male flies (elav-gal4/cyo) and 15 virgin-female (UAS-Htt97Q/UAS-Htt97Q) flies were cultured in a vial that contains standard yeast agar media without or with Compound 1. […] The eclosion rate is determined by the number of HD-flies vs. the number of non HD-flies in a total of 100 collected flies in each experimental condition. […]

Series [5] relates to HD flies. Description: Fly viability. The format is in vivo, Drosophila melanogaster. Conditions: dose that alleviated phenotypic defects.

Molecules are shown by their SMILES.

As to `CC(C)NC1CCCc2c1[nH]c1ccc(OC(C)C)cc21` (stereo not drawn), the IC50 – broadly, the concentration that gives 50% inhibition – in series [1] was over 1 µM.
As to `CCN1CCC(NC2CCCc3c2[nH]c2ccccc32)CC1` (stereo not drawn), in series [1], the IC50 was over 1 µM.
Still for that read-out and setting: the result for `Cc1ccc2[nH]c3c(c2c1)CCCC3NCc1ccccc1` (stereo not drawn) reads under 1 µM.
Turning to `Brc1ccc2[nH]c3c(c2c1)CCCC3NCc1ccccc1` (stereo not drawn) [Compound 1], the “interaction between Sup4h and NGN” value in series [1] (split Gaussia assay) is “interrupts the interaction between Sup4h and NGN”. Further, the “mutant HTT protein level” value in series [2] is listed as “decreases mutant HTT protein”. The “incidence of rough eye phenotype” value in series [3] was 70% of the untreated group. Further, in series [4], the eclosion rate entry is on record as “relatively low eclosion rate was reversed”. In addition, the fly viability entry in series [5] is recorded as “did not affect fly viability”.
Take `Brc1ccc2[nH]c3c(c2c1)CCCC3NCc1ccccc1` (stereo not drawn) [drawing 40]: in series [1], the half-inhibitory concentration (IC50) was under 1 µM.
In series [1], `CC(C)Oc1ccc2[nH]c3c(c2c1)CCCC3NC1CCCC1` (stereo not drawn) gave a half-maximal inhibitory concentration (IC50) of over 1 µM.
`CC(C)Oc1ccc2[nH]c3c(c2c1)CCCC3NCCc1ccccc1` (stereo not drawn): in series [1], the half-inhibitory concentration (IC50) is over 1 µM.
In turn, `Brc1ccc2[nH]c3c(c2c1)CCCC3NC1CCCC1` (stereo not drawn) had a concentration for half-maximal inhibition (IC50) in series [1] of under 1 µM.
On the same count and under the same terms, the result for `CC(C)NC1CCCc2c1[nH]c1ccc(Br)cc21` (stereo not drawn) reads under 1 µM; that for `O=C(NC1CCCc2c1[nH]c1ccc(Cl)cc21)c1ccccn1` (stereo not drawn), under 1 µM; that for `Cc1ccc2[nH]c3c(c2c1)CCCC3NCc1ccc(F)cc1` (stereo not drawn), under 1 µM.
